Usually TGI stands for the concentration at which net growth stops. A high value points to less potent growth arrest. For orientation: GI50 means the concentration that inhibits growth by half.

“And” between values parts separate entries of the source, which are not always exact repeats. Equal entries are not always repeated.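 Assay format: 96-well plates, 48-hour exposure. GI50 marks 50% less growth. TGI denotes the concentration required for complete inhibition of growth.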 Where a SMILES comes first, the peptide text is derived from it. The star is where a group is joined. Boc = CC(C)(C)OC(=O)* Bounds are passed on as bounds.

Test in all cases: DTP human tumour cell line panel, 48 h
The test system of assay [1] is CCRF-CEM leukemia.
Assay [2] deals with EKVX NSCLC.
Assay [3] has as its system LOX IMVI melanoma.
Assay [4] concerns NCI-H226 lung.
Assay [5] concerns NCI-H460 lung.
The test system of assay [6] is OVCAR-3 ovarian.
In assay [7] the test system is OVCAR-4 ovarian.
Assay [8] has as its system OVCAR-5 ovarian.
For assay [9], the system named is UACC-62 melanoma.
The test system of assay [10] is COLO 205 colon.
The test system of assay [11] is 786-0 renal.
Assay [12] has as its system NCI/ADR-RES ovarian.

In the case of `O=C(O)C1CCCCN1c1ccccc1[N+](=O)[O-]` (centres undefined), the TGI in assay [1], in [2], in [3], in assay [4], in assay [5] and in [6] was more than 100 µM in each case. Further, the TGI in assay [7], in assay [8] and in assay [9] was more than 100 µM throughout.

`O=C(N/N=C/c1cc(Br)cc(Br)c1[O-])c1ccccc1O.O=C(N/N=C/c1cc(Br)cc(Br)c1[O-])c1ccccc1O.[Co+2]`: the total growth inhibition concentration (TGI) in assay [10] came out at 20.4 µM; in [2], 11.3 µM; in assay [3], 12.9 µM; in assay [4] it was 7.39 µM; in assay [5] it was 20 µM; in assay [6] it was 3.6 µM. In addition, the TGI in assay [7] amounted to 3.15 µM; in [8], 11.1 µM; in assay [9], 1.78 µM.

On to `CC[C@@]1(O)C(=O)OCc2c1cc1n(c2=O)Cc2c-1nc1ccccc1c2/C=N/NC(=O)c1ccc(N)cc1`, for which the TGI in assay [11] was 5.03 µM; in [10] it was more than 100 µM; in assay [2] it was more than 100 µM; in [3] it was 0.5 µM; in [4], 0.528 µM; in assay [5], 15.2 µM. Also, the TGI in [12] is more than 37.8 µM; in assay [6], more than 100 µM; in [7] it was more than 100 µM; in assay [8] it was more than 100 µM; in assay [9] it was 1.94 µM.

On to `COc1ccc2nc3cccc([N+](=O)[O-])c3c(NCCCO)c2c1`, for which the concentration for total growth inhibition (TGI) in assay [11] was 0.0517 µM; in assay [1], 0.0572 µM and 0.133 µM; in assay [4], 0.0803 µM and 0.0618 µM; in assay [5], 0.00233 µM and 0.0153 µM; in assay [12], 0.0276 µM and 0.248 µM; in assay [7], 0.0312 µM and 0.0859 µM. Besides, the concentration for total growth inhibition (TGI) in assay [8] was 0.0177 µM and 0.0148 µM; in [9] it was 0.0151 µM and 0.0185 µM. Moreover, the GI50 in assay [1] was 0.00583 µM and 0.0153 µM; in [3], 0.0085 µM and 0.0471 µM; in [4], 0.0181 µM and 0.0138 µM; in assay [12], 0.00616 µM and 0.0229 µM; in assay [7] it was 0.0104 µM and 0.023 µM; in assay [8], 0.00181 µM. Besides, in assay [9], the 50% growth inhibitory concentration (GI50) was 0.00294 µM.

Turning to `COC(=O)[C@H](Cc1ccc(O)cc1)NC(=O)[C@H](Cc1ccc(O)cc1)NC(=O)OC(C)(C)C` (Boc-Tyr-Tyr-OMe), the TGI in [11], in [10], in assay [2], in assay [3], in assay [4] and in assay [5] was more than 100 µM in each case. Moreover, the TGI in assay [12], in assay [6], in assay [8] and in assay [9] was more than 100 µM in each case.

As for `COc1cc(OC)c2[nH]c3c(O)c(-c4c(C)cc5c([nH]c6c(OC)cc(OC)cc65)c4O)c(C)cc3c2c1`, the concentration for total growth inhibition (TGI) in assay [11] came to 15.1 µM; in assay [2], 12.7 µM; in assay [3] it was 14.6 µM; in [4], 17.6 µM; in assay [5] it was 16.6 µM; in assay [12], 16.6 µM. In addition, the TGI was determined as 18.6 µM in [6], 21.4 µM in assay [7] and 16.2 µM in [8]. Further, the GI50 in assay [8] is 9.03 µM.

As for `Cn1c(N)nc(-c2ccc(Cl)cc2)c1SSc1c(-c2ccc(Cl)cc2)nc(N)n1C`, the TGI in assay [11] stood at 3.43 µM; in [1], 5.05 µM; in assay [10], 3.81 µM; in assay [2], 6.47 µM; in assay [4] it was 83.5 µM; in [5], 15.3 µM. For the same molecule, the total growth inhibition concentration (TGI) amounted to 3.54 µM in [6], 3.21 µM in assay [7], 3.26 µM in assay [8] and 5.03 µM in assay [9].

On to `c1ccc2c(c1)OC(N1CCCC1)c1cnc(N3CCOCC3)nc1-2` (centres undefined), for which the TGI in [11] was more than 100 µM; in assay [1], more than 100 µM; in assay [10] it was more than 100 µM; in assay [2], 79.4 µM; in assay [3], more than 100 µM; in assay [4], more than 100 µM. In addition, the TGI in assay [5] was more than 100 µM; in assay [6] it was more than 100 µM; in assay [7] it was more than 100 µM; in [8], 79.1 µM; in [9], more than 100 µM.

As for `COc1ccc(-c2c(C#N)c(S)n(NS(=O)(=O)c3ccccc3)c(=O)c2C#N)cc1`, the TGI in assay [11], in assay [1], in assay [10], in [3], in [4] and in assay [5] was more than 100 µM in each case. Moreover, the TGI in [12], in assay [6], in assay [7], in assay [8] and in assay [9] was more than 100 µM in each case.

Turning to `Cn1cc(-c2csc(-c3cn(C)c4ccccc34)n2)c2ccccc21`, the concentration for total growth inhibition (TGI) in assay [11], in [1], in assay [10], in assay [3], in [4] and in [5] was more than 100 µM in each case. Moreover, the TGI in assay [12] was more than 100 µM; in assay [6] it was 64 µM; in assay [7] it was more than 100 µM; in assay [8], more than 100 µM; in [9], more than 100 µM.

For the molecule `O=c1oc2c(Cl)cc(Cl)cc2cc1C1=CSC2=NCCN12`, the TGI in assay [11], in assay [1], in [10], in assay [2], in [3] and in assay [5] was more than 100 µM in each case. The total growth inhibition concentration (TGI) in [12] is more than 100 µM; in assay [6], 92.9 µM; in assay [7], more than 100 µM; in assay [8] it was more than 100 µM; in assay [9], more than 100 µM.

Take `Cc1ccc(N/C(SCc2ccccc2)=C(\C(Cl)=C(Cl)Cl)[N+](=O)[O-])c(C)c1`: the total growth inhibition concentration (TGI) is 54.3 µM in [11]; more than 100 µM in assay [1]; 31.6 µM in [10]; more than 100 µM in assay [2]; more than 100 µM in [4]; more than 100 µM in [5]. In addition, the concentration for total growth inhibition (TGI) is 56.5 µM in assay [12]; 40.2 µM in [6]; 54 µM in assay [7]; 89.8 µM in assay [8]; more than 100 µM in [9].

The values are drawn from PubChem BioAssay (NCI).
